This is an account of results in patent US20130331389A1, “Methods and Compositions for Cardiomyocyte Replenishment by Endogenous and Progenitor Stem Cells” (NATIONAL CHENG KUNG UNIVERSITY, priority 2012, published 2013).

For one test, the system named is MerCreMer/ZEG (M/Z) mice. Kind of test: Cardiomyocyte replenishment after myocardial infarction, GFP+ / β-Gal+ cardiomyocyte counting. Type of test: in vivo, mouse. The method, then: All experiments involving animals were conducted in accordance with the Guide for the Use and Care of Laboratory Animals, and all animal protocols have been approved by National Cheng Kung University. Sca-1^− GFP, B6.Cg-Tg(Ly6a-GFP)G5Dzk/J and EP2^−/−, B6.129-Ptger2^tm/Brey/J mice were obtained from Jackson Laboratory. The double transgenic MerCreMer/ZEG (M/Z) mice were generated by crossbreeding MerCreMer and Z/EG mice (Jackson Laboratory), which have C57BL/6SV129 and C57BL/6J (N7) background strains, respectively. The MerCreMer mice contain a tamoxifen-inducible Cre recombinase fusion protein driven by the cardiomyocyte-specific α-MHC promoter. In Z/EG mice, GFP replace constitutive β-Gal expression after the removal of a LoxP-flanked stop sequence by Cre.
M/Z mice were subjected to experimental myocardial infarction (MI) one month after the last tamoxifen injection. MI was generated by ligating the left anterior descending coronary artery at 2-3 mm distal to the left atrial appendage. For cell transplantation experiments, intramyocardial injections were performed immediately after coronary ligation. A total of 6×10^5 cardiac Sca-1^+ cells were injected per mouse in two divided injections (5 μl/injection). For BrdU labeling, the mice were subcutaneously implanted with osmotic minipump (Alzet) at the time of surgery and 40 μg/μl of BrdU (Sigma) was administrated. For immunohistological studies, mice were sacrificed and the hearts were harvested at different time points following experimental MI surgery. Cardiac performances were assessed by echocardiography at 28 and 56 days after operation using Vevo 770 (Visualsonics, Toronto, Canada).
(§1) To induce Cre recombination to achieve GFP labeling of cardiomyocytes, tamoxifen (Sigma) was dissolved in sunflower oil (Sigma) at a concentration of 5 mg/ml. The tamoxifen solution was injected intraperitoneally into M/Z mice daily at a dosage of 40 μg per 1 g body weight for 14 days, and the same dosage was injected twice daily for short-term labeling using methods known in the art (Laugwitz, K.-L. et al. Nature 433, 647-653 (2005)). All experimental conditions were optimized prior to the PGE2, indomethacin and TGF-β Type I Receptor Kinase Inhibitor II (ALK5 Inhibitor II, ALK5i, Merck) treatments. The mice treated with PGE2 or PGI2 (Vegiopoulos, A. et al. Science 328, 1158-1161 (2010)) (both from Sigma) were injected intraperitoneally with 3.33 ng of drug per 1 g of body weight dissolved in absolute ethanol twice daily. For the indomethacin treatment, mice were fed with water containing indomethacin (Sigma, 15 μg/ml) for different periods of time. The indomethacin-containing water was changed every 3 days. The mice subjected to the celecoxib (Lyons, T. R. et al. Nat. Med. 17, 1109-1115 (2011)) (Sigma) treatment were injected intraperitoneally with 5 μg of drug per 1 g of body weight daily. For ALK5i treatment, aged mice were injected intraperitoneally once per day with 1 μg of drug per 1 g of body weight one day before surgery and continuously until day 10 post-MI. Celecoxib and ALK5i were dissolved in ethanol and DMSO, respectively.
All of the cellular quantifications were performed double-blindly to minimize personal bias. […] For the cardiomyocyte cell counts, 3 sections from each heart, and 2 infarction border zones and 1 remote area from each section were analyzed at a magnification of 200× by light microscopy. Cells with visible sarcomere structures were analyzed, and the average number of cells counted was 171.8±5.8 per photo image. For the small cardiac cell counts, more than five sections from each heart were analyzed at a magnification of 400× using fluorescence microscopy. The average number of cells counted was 17.01±0.99 per photo image, and more than one hundred and fifty cells were analyzed from each heart. As quantification result is the averaged values calculated from the pictures taken from six border zone sections per heart, personal variation has been minimized. […]

In the next test the test system is Sca-1. The experiment in a line: Quantitative RT-PCR of Sca-1 in infarct zone of MI heart. In kind it is in vivo, mouse. The note with it: young mice, day 3 post-MI. The method, then: as §1
The total RNA isolated from the ischemic region or remote area of MI hearts was reverse transcribed using the SuperScript III (Invitrogen) system according to the manufacturer's protocol. For quantitative PCR, the SYBR Green reagent (Maestrogen) was used according to the manufacturer's protocol. The analysis of relative gene expression was performed using the 2̂[−delta delta Ct] method and sequence-specific primers designed for semi-quantitative PCR and real-time RT-PCR (FIG. 11).

The structures appear in SMILES notation.

Take `Cc1cccc(-c2[nH]ncc2-c2ccc3ncccc3n2)n1` [ALK5i]: the “cardiomyocyte replenishment in comparison with the vehicle control group” value with MerCreMer/ZEG (M/Z) mice (aged mice, 1 μg per 1 g i.p. once per day from one day before surgery until day 10 post-MI, day 14 post-MI, P<0.01) is “restored cardiomyocyte replenishment”.

As for `CCCCC[C@H](O)/C=C/[C@@H]1[C@H]2C/C(=C/CCCC(=O)O)O[C@H]2C[C@H]1O` [PGI2, prostaglandin I2], the “significant increase of cardiomyocyte replenishment compared to the vehicle control (in words)” value in the test on MerCreMer/ZEG (M/Z) mice (border zone, 3.33 ng per 1 g i.p. twice daily for 14 days) is “not”.

In the case of `COc1ccc2c(c1)c(CC(=O)O)c(C)n2C(=O)c1ccc(Cl)cc1` [indomethacin], the “stem cell-dependent cardiomyocyte reconstitution” value with MerCreMer/ZEG (M/Z) mice (administered more than 5 days post-MI (Indo 9 D)) is “no significant effect”. The “drop of cardiomyocyte restoration rate” value with MerCreMer/ZEG (M/Z) mice (border zone, Indo 14D (1 day before and 14 days after MI), 15 μg/ml in water, P<0.05) is “about 10%”. Besides, the cardiomyocyte replenishment result with MerCreMer/ZEG (M/Z) mice (border zone, given during the first 5 days post-MI (Indo 5 D), P<0.05) is listed as “sufficient to impair cardiomyocyte replenishment”. Besides, the MI-induced cardiomyocyte replenishment entry in the test on MerCreMer/ZEG (M/Z) mice (remote area, indomethacin in water) is recorded as “abrogated”. In the test with Sca-1, the Sca-1 expression entry is listed as “repressed”.
